Measurements: US9006250B2, “4-amino-6-(heterocyclic)picolinates and 6-amino-2-(heterocyclic)pyrimidine-4-carboxylates and their use as herbicides” (Dow AgroSciences, LLC, priority 2013, dated 2015)

Tests used:
Assay in all cases: Post-Emergent Test II herbicidal activity
Type in all cases: in vivo
[1] = system: SETFA: giant foxtail (Setaria faberi); conditions: post-emergence, 336 h, 14 days, read-out: Visual Growth Reduction (%) 14 Days After Application SETFA; for pest or weed control at 35 g/ha: 35 g ai/ha; for pest or weed control at 70 g/ha: 70 g ai/ha; for pest or weed control at 140 g/ha: 140 g ai/ha
Protocol: (§1) Post-Emergent Test II: Seeds or nutlets of the desired test plant species were planted in Sun Gro Metro-Mix® 360 planting mixture, which typically has a pH of 6.0 to 6.8 and an organic matter content of about 30 percent, in plastic pots with a surface area of 64 square centimeters. When required to ensure good germination and healthy plants, a fungicide treatment and/or other chemical or physical treatment was applied. The plants were grown for 7-21 d in a greenhouse with an approximate 15 h photoperiod which was maintained at about 23-29° C. during the day and 22-28° C. during the night. Nutrients and water were added on a regular basis and supplemental lighting was provided with overhead metal halide 1000-Watt lamps as necessary. The plants were employed for testing when they reached the first or second true leaf stage.
(§2) A weighed amount, determined by the highest rate to be tested, of each test compound was placed in a 25 mL glass vial and was dissolved in 4 mL of a 97:3 v/v mixture of acetone and DMSO to obtain concentrated stock solutions. […] The concentrated stock solutions obtained were diluted with 20 mL of an aqueous mixture containing acetone, water, isopropyl alcohol, DMSO, Atplus 411F crop oil concentrate, and Triton® X-155 surfactant in a 48.5:39:10:1.5:1.0:0.02 v/v ratio to obtain spray solutions containing the highest application rates. Additional application rates were obtained by serial dilution of 12 mL of the high rate solution into a solution containing 2 mL of 97:3 v/v mixture of acetone and DMSO and 10 mL of an aqueous mixture containing acetone, water, isopropyl alcohol, DMSO, Atplus 411F crop oil concentrate, and Triton X®-155 surfactant in a 48.5:39:10:1.5:1.0:0.02 v/v ratio to obtain ½×, ¼×, ⅛× and 1/16× rates of the high rate. Compound requirements are based upon a 12 mL application volume at a rate of 187 liters per hectare (L/ha). Formulated compounds were applied to the plant material with an overhead Mandel track sprayer equipped with 8002E nozzles calibrated to deliver 187 L/ha over an application area of 0.503 square meters at a spray height of 18 inches […] above the average plant canopy height. Control plants were sprayed in the same manner with the solvent blank.
(§3) The treated plants and control plants were placed in a greenhouse as described above and watered by subirrigation to prevent wash-off of the test compounds. After 14 d, the condition of the test plants as compared with that of the untreated plants was determined visually and scored on a scale of 0 to 100 percent where 0 corresponds to no injury and 100 corresponds to complete kill.

[2] = system: BRSNN: oilseed rape, canola (Brassica napus); conditions: post-emergence, 336 h, 14 days, read-out: Visual Growth Reduction (%) 14 Days After Application BRSNN; for pest or weed control at 35 g/ha: 35 g ai/ha; for pest or weed control at 70 g/ha: 70 g ai/ha; for pest or weed control at 140 g/ha: 140 g ai/ha
Protocol: as §1, §2, §3

[3] = system: ABUTH: velvetleaf (Abutilon theophrasti); conditions: post-emergence, 336 h, 14 days, read-out: Visual Growth Reduction (%) 14 Days After Application ABUTH; for pest or weed control at 35 g/ha: 35 g ai/ha; for pest or weed control at 70 g/ha: 70 g ai/ha; for pest or weed control at 140 g/ha: 140 g ai/ha
Protocol: as §1, §2, §3

[4] = system: AMARE: redroot pigweed (Amaranthus retroflexus); conditions: post-emergence, 336 h, 14 days, read-out: Visual Growth Reduction (%) 14 Days After Application AMARE; for pest or weed control at 35 g/ha: 35 g ai/ha; for pest or weed control at 70 g/ha: 70 g ai/ha; for pest or weed control at 140 g/ha: 140 g ai/ha
Protocol: as §1, §2, §3

[5] = system: ECHCG: barnyardgrass (Echinochloa crus-galli); conditions: post-emergence, 336 h, 14 days, read-out: Visual Growth Reduction (%) 14 Days After Application ECHCG; for pest or weed control at 35 g/ha: 35 g ai/ha; for pest or weed control at 70 g/ha: 70 g ai/ha; for pest or weed control at 140 g/ha: 140 g ai/ha
Protocol: as §1, §2, §3

[6] = system: CYPES: yellow nutsedge (Cyperus esculentus); conditions: post-emergence, 336 h, 14 days, read-out: Visual Growth Reduction (%) 14 Days After Application CYPES; for pest or weed control at 35 g/ha: 35 g ai/ha; for pest or weed control at 70 g/ha: 70 g ai/ha; for pest or weed control at 140 g/ha: 140 g ai/ha
Protocol: as §1, §2, §3

[7] = system: ORYSA: rice (Oryza sativa); conditions: post-emergence, 336 h, 14 days, read-out: Visual Growth Reduction (%) 14 Days After Application ORYSA; for pest or weed control at 35 g/ha: 35 g ai/ha; for pest or weed control at 70 g/ha: 70 g ai/ha; for pest or weed control at 140 g/ha: 140 g ai/ha
Protocol: as §1, §2, §3

[8] = system: TRZAS: wheat, spring (Triticum aestivum); conditions: post-emergence, 336 h, 14 days, read-out: Visual Growth Reduction (%) 14 Days After Application TRZAS; for pest or weed control at 35 g/ha: 35 g ai/ha; for pest or weed control at 70 g/ha: 70 g ai/ha; for pest or weed control at 140 g/ha: 140 g ai/ha
Protocol: as §1, §2, §3

[9] = system: ZEAMX: maize, corn (Zea mays); conditions: post-emergence, 336 h, 14 days, read-out: Visual Growth Reduction (%) 14 Days After Application ZEAMX; for pest or weed control at 35 g/ha: 35 g ai/ha; for pest or weed control at 70 g/ha: 70 g ai/ha; for pest or weed control at 140 g/ha: 140 g ai/ha
Protocol: as §1, §2, §3

[10] = system: HELAN: sunflower (Helianthus annuus); conditions: post-emergence, 336 h, 14 days, read-out: Visual Growth Reduction (%) 14 Days After Application HELAN; for pest or weed control at 35 g/ha: 35 g ai/ha; for pest or weed control at 70 g/ha: 70 g ai/ha; for pest or weed control at 140 g/ha: 140 g ai/ha
Protocol: as §1, §2, §3

[11] = system: EPHHL: wild poinsettia (Euphorbia heterophylla); conditions: post-emergence, 336 h, 14 days, read-out: Visual Growth Reduction (%) 14 Days After Application EPHHL; for pest or weed control at 35 g/ha: 35 g ai/ha; for pest or weed control at 70 g/ha: 70 g ai/ha; for pest or weed control at 140 g/ha: 140 g ai/ha
Protocol: as §1, §2, §3

[12] = system: CHEAL: lambsquarters (Chenopodium album); conditions: post-emergence, 336 h, 14 days, read-out: Visual Growth Reduction (%) 14 Days After Application CHEAL; for pest or weed control at 35 g/ha: 35 g ai/ha; for pest or weed control at 70 g/ha: 70 g ai/ha; for pest or weed control at 140 g/ha: 140 g ai/ha
Protocol: as §1, §2, §3

Row | SMILES | pest or weed control at 35 g/ha [1] [%] | pest or weed control at 70 g/ha [1] [%] | pest or weed control at 140 g/ha [1] [%] | pest or weed control at 35 g/ha [2] [%] | pest or weed control at 70 g/ha [2] [%] | pest or weed control at 140 g/ha [2] [%] | pest or weed control at 35 g/ha [3] [%] | pest or weed control at 70 g/ha [3] [%] | pest or weed control at 140 g/ha [3] [%] | pest or weed control at 35 g/ha [4] [%] | pest or weed control at 70 g/ha [4] [%] | pest or weed control at 140 g/ha [4] [%] | pest or weed control at 35 g/ha [5] [%] | pest or weed control at 70 g/ha [5] [%] | pest or weed control at 140 g/ha [5] [%] | pest or weed control at 35 g/ha [6] [%] | pest or weed control at 70 g/ha [6] [%] | pest or weed control at 140 g/ha [6] [%] | pest or weed control at 35 g/ha [7] [%] | pest or weed control at 70 g/ha [7] [%] | also measured
1 | Nc1c(F)c(-c2ccc3nsnc3c2)nc(C(=O)O)c1Cl [Compound 12] | 0 to 29 | 0 to 29 | 75 to 84 | 75 to 84 | 75 to 84 | 75 to 84 | 85 to 94 | 85 to 94 | 85 to 94 | 95 to 100 | 95 to 100 | 95 to 100 | 75 to 84 | 75 to 84 | 85 to 94 | 0 to 29 | 0 to 29 | 0 to 29 | 0 to 29 | 0 to 29 | pest or weed control at 140 g/ha [7]: 0 to 29%; pest or weed control at 35 g/ha [8]: 0 to 29%; pest or weed control at 70 g/ha [8]: 0 to 29%; pest or weed control at 140 g/ha [8]: 0 to 29%; pest or weed control at 35 g/ha [9]: 60 to 74%; pest or weed control at 70 g/ha [9]: 60 to 74%; pest or weed control at 140 g/ha [9]: 75 to 84%; pest or weed control at 35 g/ha [10]: 95 to 100%; pest or weed control at 70 g/ha [10]: 95 to 100%; pest or weed control at 140 g/ha [10]: 95 to 100%; pest or weed control at 35 g/ha [11]: 95 to 100%; pest or weed control at 70 g/ha [11]: 95 to 100%; pest or weed control at 140 g/ha [11]: 95 to 100%; pest or weed control at 35 g/ha [12]: 85 to 94%; pest or weed control at 70 g/ha [12]: 95 to 100%; pest or weed control at 140 g/ha [12]: 95 to 100%
2 | COC(=O)c1nc(-c2ccc3nsnc3c2F)cc(N)c1Cl [Compound 14] | 0 to 29 | 0 to 29 | 0 to 29 | 0 to 29 | 0 to 29 | 0 to 29 | 0 to 29 | 0 to 29 | 0 to 29 | 30 to 44 | 30 to 44 | 45 to 59 | 0 to 29 | 0 to 29 | 0 to 29 | 0 to 29 | 0 to 29 | 0 to 29 | 0 to 29 | 0 to 29 | pest or weed control at 140 g/ha [7]: 0 to 29%; pest or weed control at 35 g/ha [8]: 0 to 29%; pest or weed control at 70 g/ha [8]: 0 to 29%; pest or weed control at 140 g/ha [8]: 0 to 29%; pest or weed control at 35 g/ha [9]: 0 to 29%; pest or weed control at 70 g/ha [9]: 0 to 29%; pest or weed control at 140 g/ha [9]: 0 to 29%; pest or weed control at 35 g/ha [10]: 0 to 29%; pest or weed control at 70 g/ha [10]: 0 to 29%; pest or weed control at 140 g/ha [10]: 30 to 44%; pest or weed control at 35 g/ha [11]: 60 to 74%; pest or weed control at 70 g/ha [11]: 85 to 94%; pest or weed control at 140 g/ha [11]: 95 to 100%; pest or weed control at 35 g/ha [12]: 45 to 59%; pest or weed control at 70 g/ha [12]: 60 to 74%; pest or weed control at 140 g/ha [12]: 75 to 84%
3 | COC(=O)c1nc(-c2ccc3nonc3c2Cl)cc(N)c1Cl [Compound 18] | 0 to 29 | 0 to 29 | 0 to 29 | 60 to 74 | 75 to 84 | 75 to 84 | 0 to 29 | 0 to 29 | 0 to 29 | 95 to 100 | 95 to 100 | 95 to 100 | 0 to 29 | 0 to 29 | 30 to 44 | 0 to 29 | 0 to 29 | 30 to 44 | 0 to 29 | 0 to 29 | pest or weed control at 140 g/ha [7]: 0 to 29%; pest or weed control at 35 g/ha [8]: 0 to 29%; pest or weed control at 70 g/ha [8]: 0 to 29%; pest or weed control at 140 g/ha [8]: 0 to 29%; pest or weed control at 35 g/ha [9]: 0 to 29%; pest or weed control at 70 g/ha [9]: 0 to 29%; pest or weed control at 140 g/ha [9]: 0 to 29%; pest or weed control at 35 g/ha [10]: 0 to 29%; pest or weed control at 70 g/ha [10]: 30 to 44%; pest or weed control at 140 g/ha [10]: 60 to 74%; pest or weed control at 35 g/ha [11]: 0 to 29%; pest or weed control at 70 g/ha [11]: 0 to 29%; pest or weed control at 140 g/ha [11]: 30 to 44%; pest or weed control at 35 g/ha [12]: 75 to 84%; pest or weed control at 70 g/ha [12]: 85 to 94%; pest or weed control at 140 g/ha [12]: 95 to 100%
